Reference: ChEMBL document CHEMBL5291721, “A preclinical secondary pharmacology resource illuminates target-adverse drug reaction associations of marketed drugs” (Nat Commun, 2023)
Where a SMILES comes first, the peptide text is derived from it. [ ]: non-standard residue; d: D form. pGlu = O=C1CC[C@@H](C(=O)O)N1; Thz = O=C(O)[C@@H]1CSCN1

Legend:
Melanocortin receptor 3 = Melanocortin receptor 3 (Homo sapiens, UniProt P41968)
[1] = target: Voltage-dependent L-type calcium channel subunit alpha-1C (Rattus norvegicus, UniProt P22002); type: functional
[2] = target: 3',5'-cyclic-AMP phosphodiesterase 4D (Homo sapiens, UniProt Q08499); type: functional
[3] = target: cGMP-inhibited 3',5'-cyclic phosphodiesterase 3A (Homo sapiens, UniProt Q14432); type: functional
Progesterone receptor = target: T1, Progesterone receptor (Homo sapiens, UniProt P06401); type: functional
T1 sequence (P06401 whole entry): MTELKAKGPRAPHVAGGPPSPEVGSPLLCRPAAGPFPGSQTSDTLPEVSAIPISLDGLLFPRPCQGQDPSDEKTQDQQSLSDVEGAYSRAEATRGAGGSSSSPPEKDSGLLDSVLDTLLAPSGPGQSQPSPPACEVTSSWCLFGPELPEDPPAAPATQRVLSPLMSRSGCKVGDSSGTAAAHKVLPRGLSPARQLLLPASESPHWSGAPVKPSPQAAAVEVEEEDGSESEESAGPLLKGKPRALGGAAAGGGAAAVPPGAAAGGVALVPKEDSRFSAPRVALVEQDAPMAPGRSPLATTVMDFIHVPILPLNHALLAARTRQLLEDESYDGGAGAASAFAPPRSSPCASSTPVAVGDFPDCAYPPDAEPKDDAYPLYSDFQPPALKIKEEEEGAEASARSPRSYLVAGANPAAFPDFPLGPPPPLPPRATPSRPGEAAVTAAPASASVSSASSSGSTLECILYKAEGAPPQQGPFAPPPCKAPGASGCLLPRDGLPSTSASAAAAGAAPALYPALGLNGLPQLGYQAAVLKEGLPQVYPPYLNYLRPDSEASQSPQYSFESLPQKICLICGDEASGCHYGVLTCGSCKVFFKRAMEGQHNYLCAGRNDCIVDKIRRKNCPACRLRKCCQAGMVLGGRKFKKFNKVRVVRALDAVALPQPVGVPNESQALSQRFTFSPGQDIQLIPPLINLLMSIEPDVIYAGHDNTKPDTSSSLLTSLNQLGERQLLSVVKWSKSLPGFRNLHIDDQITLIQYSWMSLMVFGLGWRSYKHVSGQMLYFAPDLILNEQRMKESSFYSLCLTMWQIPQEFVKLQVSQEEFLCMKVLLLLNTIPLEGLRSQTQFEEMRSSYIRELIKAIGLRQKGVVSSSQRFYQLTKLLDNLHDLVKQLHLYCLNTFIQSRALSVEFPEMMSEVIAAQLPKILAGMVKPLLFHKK

[4] = target: T2, Amine oxidase [flavin-containing] A (Homo sapiens, UniProt P21397); type: functional
T2 sequence (P21397 whole entry): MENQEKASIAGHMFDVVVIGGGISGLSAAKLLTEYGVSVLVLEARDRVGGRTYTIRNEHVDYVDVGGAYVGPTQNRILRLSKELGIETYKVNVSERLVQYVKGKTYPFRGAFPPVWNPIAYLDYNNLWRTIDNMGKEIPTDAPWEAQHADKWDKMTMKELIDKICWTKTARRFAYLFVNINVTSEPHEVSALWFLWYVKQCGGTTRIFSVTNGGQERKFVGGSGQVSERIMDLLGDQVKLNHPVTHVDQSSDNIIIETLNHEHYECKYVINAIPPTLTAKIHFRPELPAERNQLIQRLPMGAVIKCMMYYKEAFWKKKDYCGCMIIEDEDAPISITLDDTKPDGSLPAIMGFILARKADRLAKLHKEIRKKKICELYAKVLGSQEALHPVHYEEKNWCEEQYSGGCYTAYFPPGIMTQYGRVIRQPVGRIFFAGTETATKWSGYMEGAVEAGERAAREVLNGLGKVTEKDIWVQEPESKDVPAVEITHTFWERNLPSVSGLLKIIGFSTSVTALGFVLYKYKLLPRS

Histamine H2 receptor = Histamine H2 receptor (Homo sapiens, UniProt P25021); type: functional, cell-based
[5] = target: T3, 5-hydroxytryptamine receptor 1A (Homo sapiens, UniProt P08908); type: functional, cell-based
T3 sequence (P08908 whole entry): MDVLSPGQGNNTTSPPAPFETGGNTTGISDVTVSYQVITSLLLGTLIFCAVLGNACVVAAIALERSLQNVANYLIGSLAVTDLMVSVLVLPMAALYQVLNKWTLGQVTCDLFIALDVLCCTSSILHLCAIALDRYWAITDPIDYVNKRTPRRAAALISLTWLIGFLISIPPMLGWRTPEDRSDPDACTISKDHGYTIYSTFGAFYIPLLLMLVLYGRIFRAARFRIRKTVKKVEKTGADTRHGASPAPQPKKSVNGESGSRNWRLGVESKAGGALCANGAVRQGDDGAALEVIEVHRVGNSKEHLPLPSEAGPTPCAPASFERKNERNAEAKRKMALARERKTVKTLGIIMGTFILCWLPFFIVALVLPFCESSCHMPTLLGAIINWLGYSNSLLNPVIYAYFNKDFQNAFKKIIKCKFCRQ

Adenosine receptor A3 = target: T4, Adenosine receptor A3 (Homo sapiens, UniProt P0DMS8)
T4 sequence (P0DMS8 whole entry): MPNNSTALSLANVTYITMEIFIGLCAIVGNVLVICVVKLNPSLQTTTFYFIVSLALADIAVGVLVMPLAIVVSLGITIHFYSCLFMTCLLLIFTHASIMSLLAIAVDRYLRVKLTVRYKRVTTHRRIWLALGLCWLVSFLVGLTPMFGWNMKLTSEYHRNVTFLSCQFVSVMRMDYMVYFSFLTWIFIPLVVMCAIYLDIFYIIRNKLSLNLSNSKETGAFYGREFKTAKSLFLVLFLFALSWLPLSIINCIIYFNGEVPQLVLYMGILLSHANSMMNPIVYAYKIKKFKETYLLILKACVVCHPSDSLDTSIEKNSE

D(3) dopamine receptor = D(3) dopamine receptor (Homo sapiens, UniProt P35462)
Note: assay procedure not described here.

Sequence of Melanocortin receptor 3 (P41968 whole entry): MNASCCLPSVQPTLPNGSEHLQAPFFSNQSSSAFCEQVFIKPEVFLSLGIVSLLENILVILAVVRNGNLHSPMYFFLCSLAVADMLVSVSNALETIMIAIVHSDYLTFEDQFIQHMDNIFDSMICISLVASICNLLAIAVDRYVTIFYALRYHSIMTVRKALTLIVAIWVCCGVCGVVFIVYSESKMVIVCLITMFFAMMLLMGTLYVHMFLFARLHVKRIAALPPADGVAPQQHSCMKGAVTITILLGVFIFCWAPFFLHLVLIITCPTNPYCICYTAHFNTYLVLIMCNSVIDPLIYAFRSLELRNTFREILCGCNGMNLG
Sequence of cGMP-inhibited 3',5'-cyclic phosphodiesterase 3A (Q14432 whole entry): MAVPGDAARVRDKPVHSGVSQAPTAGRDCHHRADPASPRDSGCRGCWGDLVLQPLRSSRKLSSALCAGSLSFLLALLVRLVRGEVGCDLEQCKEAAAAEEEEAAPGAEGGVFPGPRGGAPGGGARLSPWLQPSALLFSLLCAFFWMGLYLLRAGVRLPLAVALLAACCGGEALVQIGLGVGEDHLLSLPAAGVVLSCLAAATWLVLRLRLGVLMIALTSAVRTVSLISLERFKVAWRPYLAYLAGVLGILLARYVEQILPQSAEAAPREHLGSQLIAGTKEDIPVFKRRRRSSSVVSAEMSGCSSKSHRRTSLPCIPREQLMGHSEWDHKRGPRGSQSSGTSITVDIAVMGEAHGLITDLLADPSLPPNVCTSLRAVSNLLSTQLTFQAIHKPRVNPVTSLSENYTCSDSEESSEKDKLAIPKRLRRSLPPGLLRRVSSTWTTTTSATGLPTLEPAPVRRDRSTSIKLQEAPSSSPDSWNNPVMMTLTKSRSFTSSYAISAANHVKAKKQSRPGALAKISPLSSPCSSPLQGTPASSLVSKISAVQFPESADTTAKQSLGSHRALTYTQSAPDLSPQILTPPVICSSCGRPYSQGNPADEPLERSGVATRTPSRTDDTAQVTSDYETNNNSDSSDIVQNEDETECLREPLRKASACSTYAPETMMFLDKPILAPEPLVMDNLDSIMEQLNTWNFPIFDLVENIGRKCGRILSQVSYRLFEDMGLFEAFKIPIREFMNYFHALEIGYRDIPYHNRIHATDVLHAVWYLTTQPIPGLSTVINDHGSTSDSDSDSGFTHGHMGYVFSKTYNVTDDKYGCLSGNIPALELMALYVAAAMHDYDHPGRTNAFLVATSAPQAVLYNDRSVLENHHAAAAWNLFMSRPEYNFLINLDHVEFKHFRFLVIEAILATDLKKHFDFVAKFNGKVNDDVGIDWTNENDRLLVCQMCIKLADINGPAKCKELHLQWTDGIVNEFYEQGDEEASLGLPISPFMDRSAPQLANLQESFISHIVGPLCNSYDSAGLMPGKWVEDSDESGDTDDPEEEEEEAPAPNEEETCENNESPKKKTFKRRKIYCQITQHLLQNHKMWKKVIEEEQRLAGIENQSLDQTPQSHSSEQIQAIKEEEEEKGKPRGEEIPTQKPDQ
Sequence of 3',5'-cyclic-AMP phosphodiesterase 4D (Q08499 whole entry): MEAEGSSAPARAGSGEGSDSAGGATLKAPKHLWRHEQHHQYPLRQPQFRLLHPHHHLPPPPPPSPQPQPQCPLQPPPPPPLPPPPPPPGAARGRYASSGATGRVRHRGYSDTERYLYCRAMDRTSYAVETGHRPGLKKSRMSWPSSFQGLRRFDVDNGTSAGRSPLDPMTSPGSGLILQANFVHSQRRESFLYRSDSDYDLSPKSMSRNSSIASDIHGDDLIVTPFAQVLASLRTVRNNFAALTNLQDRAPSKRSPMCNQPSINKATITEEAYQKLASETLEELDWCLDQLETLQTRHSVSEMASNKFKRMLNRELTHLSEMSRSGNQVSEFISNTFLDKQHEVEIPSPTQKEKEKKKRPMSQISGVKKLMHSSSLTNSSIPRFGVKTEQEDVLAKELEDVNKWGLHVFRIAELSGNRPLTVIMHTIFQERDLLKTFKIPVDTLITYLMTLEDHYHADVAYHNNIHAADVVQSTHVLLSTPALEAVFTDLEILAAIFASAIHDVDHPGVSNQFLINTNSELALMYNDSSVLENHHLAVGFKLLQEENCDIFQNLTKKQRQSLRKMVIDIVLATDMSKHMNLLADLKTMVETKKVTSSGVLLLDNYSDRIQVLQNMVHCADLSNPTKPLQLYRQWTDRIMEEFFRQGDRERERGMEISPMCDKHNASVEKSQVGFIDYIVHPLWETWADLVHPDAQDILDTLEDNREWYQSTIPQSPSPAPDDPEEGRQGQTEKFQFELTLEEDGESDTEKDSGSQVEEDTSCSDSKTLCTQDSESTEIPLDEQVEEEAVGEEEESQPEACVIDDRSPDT
Sequence of Voltage-dependent L-type calcium channel subunit alpha-1C (P22002 whole entry): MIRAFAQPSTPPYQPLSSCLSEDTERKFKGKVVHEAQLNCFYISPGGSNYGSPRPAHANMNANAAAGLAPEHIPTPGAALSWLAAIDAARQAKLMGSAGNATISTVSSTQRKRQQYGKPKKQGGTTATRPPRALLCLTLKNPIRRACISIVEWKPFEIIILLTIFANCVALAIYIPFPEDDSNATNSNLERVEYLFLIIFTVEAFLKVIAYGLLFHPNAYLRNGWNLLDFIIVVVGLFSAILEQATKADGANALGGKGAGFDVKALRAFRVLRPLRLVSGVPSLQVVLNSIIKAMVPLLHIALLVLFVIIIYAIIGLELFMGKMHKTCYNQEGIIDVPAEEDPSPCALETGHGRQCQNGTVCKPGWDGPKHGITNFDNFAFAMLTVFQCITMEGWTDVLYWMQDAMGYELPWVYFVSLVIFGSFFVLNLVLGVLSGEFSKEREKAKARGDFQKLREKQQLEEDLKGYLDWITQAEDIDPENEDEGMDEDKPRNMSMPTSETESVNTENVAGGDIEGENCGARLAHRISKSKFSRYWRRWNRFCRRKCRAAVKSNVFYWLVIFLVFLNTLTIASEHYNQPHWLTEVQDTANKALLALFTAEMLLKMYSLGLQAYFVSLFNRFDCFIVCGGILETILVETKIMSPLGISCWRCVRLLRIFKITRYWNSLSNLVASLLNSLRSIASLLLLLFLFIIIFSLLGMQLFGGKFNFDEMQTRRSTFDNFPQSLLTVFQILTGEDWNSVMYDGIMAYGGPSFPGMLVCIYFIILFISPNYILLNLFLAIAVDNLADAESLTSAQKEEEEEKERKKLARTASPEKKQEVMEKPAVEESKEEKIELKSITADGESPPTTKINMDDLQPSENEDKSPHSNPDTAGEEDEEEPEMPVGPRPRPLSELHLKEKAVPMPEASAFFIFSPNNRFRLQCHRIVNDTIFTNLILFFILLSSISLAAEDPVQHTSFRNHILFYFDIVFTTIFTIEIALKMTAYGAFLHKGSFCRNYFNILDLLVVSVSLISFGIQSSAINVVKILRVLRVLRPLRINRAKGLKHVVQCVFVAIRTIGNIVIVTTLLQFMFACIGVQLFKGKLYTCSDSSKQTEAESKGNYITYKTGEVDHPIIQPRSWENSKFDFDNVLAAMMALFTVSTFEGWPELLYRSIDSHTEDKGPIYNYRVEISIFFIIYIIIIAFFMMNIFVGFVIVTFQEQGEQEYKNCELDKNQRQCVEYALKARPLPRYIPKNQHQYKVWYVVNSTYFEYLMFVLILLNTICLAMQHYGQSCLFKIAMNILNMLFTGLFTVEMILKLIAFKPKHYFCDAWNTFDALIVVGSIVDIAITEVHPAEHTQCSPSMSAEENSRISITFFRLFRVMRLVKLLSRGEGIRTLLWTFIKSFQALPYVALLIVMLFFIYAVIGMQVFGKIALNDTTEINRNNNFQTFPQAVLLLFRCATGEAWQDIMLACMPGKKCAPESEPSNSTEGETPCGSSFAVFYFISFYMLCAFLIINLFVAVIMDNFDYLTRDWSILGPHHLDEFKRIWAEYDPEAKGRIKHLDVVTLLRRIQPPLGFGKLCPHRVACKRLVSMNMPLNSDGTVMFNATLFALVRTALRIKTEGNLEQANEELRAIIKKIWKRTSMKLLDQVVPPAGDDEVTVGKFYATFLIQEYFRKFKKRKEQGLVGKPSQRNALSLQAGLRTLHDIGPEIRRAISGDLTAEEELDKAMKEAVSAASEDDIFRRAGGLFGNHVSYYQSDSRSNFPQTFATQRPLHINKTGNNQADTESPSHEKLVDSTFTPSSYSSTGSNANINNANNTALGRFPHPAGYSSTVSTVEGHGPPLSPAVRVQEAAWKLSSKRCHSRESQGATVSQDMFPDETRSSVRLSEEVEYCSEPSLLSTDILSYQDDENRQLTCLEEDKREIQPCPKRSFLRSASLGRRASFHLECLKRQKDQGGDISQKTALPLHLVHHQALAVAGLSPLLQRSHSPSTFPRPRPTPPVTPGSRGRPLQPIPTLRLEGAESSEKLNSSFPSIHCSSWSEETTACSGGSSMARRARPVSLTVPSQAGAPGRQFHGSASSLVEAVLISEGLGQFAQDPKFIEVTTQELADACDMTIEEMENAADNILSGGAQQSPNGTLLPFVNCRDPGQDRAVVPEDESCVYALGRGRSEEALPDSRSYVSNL
Sequence of Histamine H2 receptor (P25021 whole entry): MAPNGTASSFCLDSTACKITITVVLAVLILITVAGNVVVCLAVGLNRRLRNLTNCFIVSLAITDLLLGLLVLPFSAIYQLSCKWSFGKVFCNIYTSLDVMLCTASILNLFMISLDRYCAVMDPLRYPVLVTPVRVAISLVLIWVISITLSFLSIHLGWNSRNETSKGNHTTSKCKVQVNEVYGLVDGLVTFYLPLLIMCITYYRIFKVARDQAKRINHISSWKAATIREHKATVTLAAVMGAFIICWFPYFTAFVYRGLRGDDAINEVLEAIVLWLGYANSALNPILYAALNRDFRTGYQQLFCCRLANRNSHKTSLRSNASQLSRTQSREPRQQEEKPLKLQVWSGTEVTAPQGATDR

Compound | AC50 (Melanocortin receptor 3) [µM] | AC50 [1] [µM] | AC50 [2] [µM] | AC50 [3] [µM] | AC50 (Progesterone receptor) [µM] | AC50 [4] [µM] | AC50 (Histamine H2 receptor) [µM] | AC50 [5] [µM] | AC50 (Adenosine receptor A3) [µM] | AC50 (D(3) dopamine receptor) [µM]
CCCC(C)(COC(N)=O)COC(N)=O [MEPROBAMATE] | > 10 | > 10 | > 30 | > 30 | > 10 | > 30 | > 30 | > 10 | > 10 | > 30
O=C(c1cc(Cc2n[nH]c(=O)c3ccccc23)ccc1F)N1CCN(C(=O)C2CC2)CC1 [OLAPARIB] | > 30 | > 10 | > 30 | 24 | > 30 | > 10 | > 30 | > 10 | > 30 | > 30
NC(=O)NC(=O)Cc1ccccc1 [PHENACEMIDE] | > 10 | > 10 | > 30 | > 30 | > 10 | > 10 | > 10 | > 10 | > 10 | > 30
OC[C@H]1O[C@@H](Oc2cc(O)cc(/C=C/c3ccc(O)cc3)c2)[C@H](O)[C@@H](O)[C@@H]1O [PICEID] | > 30 | > 30 | > 30 | > 30 | > 30 | > 30 | > 30 | > 30 | > 30 | > 30
O=C1CC[C@@H](C(=O)N2CSC[C@H]2C(=O)O)N1 [PIDOTIMOD] ([pGlu]-[Thz]-OH) | > 30 | > 30 | > 30 | > 30 | > 30 | > 30 | > 30 | > 30 | > 30 | > 30
CCCN(CCC)S(=O)(=O)c1ccc(C(=O)O)cc1 [PROBENECID] | > 10 | > 10 | > 30 | > 30 | > 10 | > 10 | > 10 | > 10 | > 10 | > 30
CCC(NC(C)C)C(O)c1ccc(O)c2[nH]c(=O)ccc12 (stereo not given) [PROCATEROL] | > 30 | > 30 | > 30 | > 30 | > 30 | > 30 | > 30 | > 30 | > 30 | > 30
CCc1nc(N)nc(N)c1-c1ccc(Cl)cc1 [PYRIMETHAMINE] | > 10 | > 10 | 12 | > 30 | > 10 | > 30 | > 30 | 18 | > 10 | > 30
CC1=C(/C=C/C(C)=C/C=C/C(C)=C/CO)C(C)(C)CCC1 [RETINOL] | > 10 | > 10 | > 30 | > 30 | > 30 | > 10 | > 10 | > 10 | > 10 | > 30
